From patent EP0535528A1, “Antibacterial 5-Nitro-1-methyl-imidazolyl-3-terbutyl-2-hydroxy-aryl-carbinols” (EURORESEARCH S.r.L., priority 1991, dated 1993)
≈ marks a conversion by molar mass, not a printed value.

Columns and labels:
[1] = tested on: Swiss female albino mice; test: Oral and intraperitoneal acute toxicity in mice (LD50, Probits method); format: in vivo; details: mice
Experimental: 20 Swiss female albino mice are used for this test of the average weight of 20 g (±2), coming from Nossan breeding .
Cages: in Makrolon® with saw dust litter, Number of animals per cage: 5 Acclimation period: 1 week Temperature: 22°C (± 2°C) Humidity : 60%, Diet: pellets for mice produced by Nossan firm, Water ad libitum Fast before the treatment: 16 hours
Oral by gastric route and intraperitoneal.
The substances to be studied: EU11100, EU11102, EU11103, EU11104 are treated with 0.5% carboxymethylcellulose in spring water, for the oral administration, whereas the same substances are intraperitoneally administered in the form of a physiological solution .
For each of the above mentioned substances, a mother suspension is prepared having a concentration in the active ingredient of 250 mg/ml for the oral administration, and analogously a mother suspension is prepared for the intraperitoneal administration having a concentration of the desired active principle of 100 mg/ml.
The following doses are used • a) oral route: 5000 mg/kg • b) intraperitoneal route : 2000 mg/kg
If mortality is observed at the above mentioned doses, other doses are administered in order to obtain a dose-response curve.
5 animals are used for every utilized concentration.
After the administration of the above substances the animals are kept under observation for 14 days , during which the mortality and the behaviour is observed.
LD₅₀ is determined on the base of the cumulative mortality observed in the successive 14 days after the administration by using the Probits method.

[2] = tested on: Helicobapter pylori; test: Minimal inhibiting concentration (agar dilution); format: cell-based
Experimental: Substances under examination: EU11100, EU11102, EU11103, EU11104. Comparison substance: Metronidazole Solubilization of the substances: All the substances to be studied are dissolved at room temperature in DMSO. […] 10 strains of Helicobapter pylori are used of recent clinical isolation […] The sowing of the bacteria, prepared as described in the preceding test is carried out by means a "multi-point inoculator". After 48 hours incubation under the condition described in the preceding test, the plates are examined and the Minimal Inhibiting Concentration is evaluated, namely that dose corresponding to growth absence.

[3] = tested on: Helicobapter pylori; test: Inhibition halos of the bacterial growth (impregnated disks on agar); format: cell-based; details: for activity against the Helicobapter pylori strains used: 10 strains; for Inhibition halo (mm), Average: average of 10 strains
Experimental: Comparison substance: Metronidazole Solubilization of the substances : All the substances to be studied are dissolved at room temperature in DMSO.
Some commercially available antibiogram disks are so impregnated with the above mentioned compounds that each disk has concentration equal to 10, 1, 0.1, 0.01 µg.
10 strains of Helicobapter pylori are used of recent clinical isolation.
Columbia Blood Agar Base is used, containing 5% of defibrinated horse blood, 2 % of calf serum, 2 vials of Vitox per liter of medium and Vancomicine (10 µg/ml) Trimetoprim lactate(5 µg/ml) and Polimixin B (2.5 U/ml).
0.1 ml of a suspension of the different used strains are uniformly distributed onto Petri plates, containing 20 ml of Columbia Blood Agar base, obtained by taking a sample, by means of a platinum loop, of different colonies from a 48 hours culture, grown in anaerobiosis jars with "Gas Pack", without a catalyst and diluted into a physiological solution.
4 disks per plate, previously impregnated with the substances under examination, are then placed onto the agar layer of each plate.
After 48 hours of anaerobiosis incubation, as above described, the inhibition halos of the bacterial growth, produced by the different activity of the substances inside the agar, are evaluated.

## Cc1cc(C(O)c2ncc([N+](=O)[O-])n2C)c(O)c(C(C)(C)C)c1 (stereo not shown) [EU11103, 5-nitro-1-methyl-imidazolyl-3-terbutyl-2-hydroxy-5 methyl-phenyl-carbinol]
[1]; intraperitoneal, 2000 mg/kg
  toxicity when intraperitoneally administered: not toxic
[1]; oral, 5000 mg/kg
  toxicity when orally administered: not toxic
[2]; 10 strains
  MIC50: 0.03 µg/mL (≈ 0.0939 µM)
  MIC90: 0.06 µg/mL (≈ 0.188 µM)
  MIC range: 0.015 to 0.016 µg/mL
[2]; in words, compared with Metronidazole
  MIC values: very low MIC values
[2]; strain 1
  MIC: 0.06 µg/mL (≈ 0.188 µM)
[2]; strain 2
  MIC: 0.06 µg/mL (≈ 0.188 µM)
[2]; strain 3
  MIC: 0.03 µg/mL (≈ 0.0939 µM)
[2]; strain 4
  MIC: 0.03 µg/mL (≈ 0.0939 µM)
[2]; strain 5
  MIC: 0.03 µg/mL (≈ 0.0939 µM)
[2]; strain 6
  MIC: 0.03 µg/mL (≈ 0.0939 µM)
[2]; strain 7
  MIC: 0.06 µg/mL (≈ 0.188 µM)
[2]; strain 8
  MIC: 0.06 µg/mL (≈ 0.188 µM)
[2]; strain 9
  MIC: 0.03 µg/mL (≈ 0.0939 µM)
[2]; strain 10
  MIC: 0.015 µg/mL (≈ 0.047 µM)
[3]; 0.1 µg/disk
  activity against the Helicobapter pylori strains used: active against 4 out of 10 strains
[3]; 1 µg/disk
  activity against the Helicobapter pylori strains used: active against all the Helicobapter pylori used
  Inhibition halo (mm), Average: 26.7 mm
[3]; disk test
  activity against the Helicobapter pylori strains used: active against all the Helicobapter pylori strains used
[3]; 10 µg/disk
  Inhibition halo (mm), Average: 36.6 mm
[3]; strain 1, 0.01 µg/disk
  Inhibition halo (mm) at the concentration (µg/disk): 0 mm
[3]; strain 1, 1 µg/disk
  Inhibition halo (mm) at the concentration (µg/disk): 30 mm
[3]; strain 1, 10 µg/disk
  Inhibition halo (mm) at the concentration (µg/disk): 40 mm
[3]; strain 2, 0.01 µg/disk
  Inhibition halo (mm) at the concentration (µg/disk): 0 mm
[3]; strain 2, 0.1 µg/disk
  Inhibition halo (mm) at the concentration (µg/disk): 0 mm
[3]; strain 3, 0.01 µg/disk
  Inhibition halo (mm) at the concentration (µg/disk): 0 mm
[3]; strain 3, 0.1 µg/disk
  Inhibition halo (mm) at the concentration (µg/disk): 0 mm
[3]; strain 3, 1 µg/disk
  Inhibition halo (mm) at the concentration (µg/disk): 24 mm
[3]; strain 3, 10 µg/disk
  Inhibition halo (mm) at the concentration (µg/disk): 35 mm
[3]; strain 4, 0.01 µg/disk
  Inhibition halo (mm) at the concentration (µg/disk): 0 mm
[3]; strain 4, 0.1 µg/disk
  Inhibition halo (mm) at the concentration (µg/disk): 20 mm
[3]; strain 4, 10 µg/disk
  Inhibition halo (mm) at the concentration (µg/disk): 44 mm
[3]; strain 5, 0.01 µg/disk
  Inhibition halo (mm) at the concentration (µg/disk): 0 mm
[3]; strain 5, 0.1 µg/disk
  Inhibition halo (mm) at the concentration (µg/disk): 0 mm
[3]; strain 5, 1 µg/disk
  Inhibition halo (mm) at the concentration (µg/disk): 17 mm
[3]; strain 5, 10 µg/disk
  Inhibition halo (mm) at the concentration (µg/disk): 22 mm
[3]; strain 6, 0.01 µg/disk
  Inhibition halo (mm) at the concentration (µg/disk): 0 mm
[3]; strain 6, 1 µg/disk
  Inhibition halo (mm) at the concentration (µg/disk): 32 mm
[3]; strain 6, 10 µg/disk
  Inhibition halo (mm) at the concentration (µg/disk): 43 mm
[3]; strain 7, 0.01 µg/disk
  Inhibition halo (mm) at the concentration (µg/disk): 0 mm
[3]; strain 7, 0.1 µg/disk
  Inhibition halo (mm) at the concentration (µg/disk): 0 mm
[3]; strain 7, 1 µg/disk
  Inhibition halo (mm) at the concentration (µg/disk): 20 mm
[3]; strain 7, 10 µg/disk
  Inhibition halo (mm) at the concentration (µg/disk): 28 mm
[3]; strain 8, 0.01 µg/disk
  Inhibition halo (mm) at the concentration (µg/disk): 0 mm
[3]; strain 8, 0.1 µg/disk
  Inhibition halo (mm) at the concentration (µg/disk): 21 mm
[3]; strain 8, 1 µg/disk
  Inhibition halo (mm) at the concentration (µg/disk): 37 mm
[3]; strain 8, 10 µg/disk
  Inhibition halo (mm) at the concentration (µg/disk): 45 mm
[3]; strain 9, 0.01 µg/disk
  Inhibition halo (mm) at the concentration (µg/disk): 0 mm
[3]; strain 9, 0.1 µg/disk
  Inhibition halo (mm) at the concentration (µg/disk): 0 mm
[3]; strain 9, 1 µg/disk
  Inhibition halo (mm) at the concentration (µg/disk): 22 mm
[3]; strain 9, 10 µg/disk
  Inhibition halo (mm) at the concentration (µg/disk): 33 mm
[3]; strain 10, 0.01 µg/disk
  Inhibition halo (mm) at the concentration (µg/disk): 0 mm
[3]; strain 10, 0.1 µg/disk
  Inhibition halo (mm) at the concentration (µg/disk): 0 mm
[3]; strain 10, 1 µg/disk
  Inhibition halo (mm) at the concentration (µg/disk): 24 mm
